Measurements: patent publication US8703424B2, “Predicting human developmental toxicity of pharmaceuticals using human stem-like cells and metabolomics” (Stemina Biomarker Discovery, Inc., priority 2010, dated 2014)
Where two headings read alike, the source gives them in different places.

Legend:
hESCs = experiment: Arginine / ADMA fold change ratio (integrated EICs) in dosed hESCs vs controls; conditions: for Arg fold change/ADMA fold change: EIC areas, controls vs. dosed
Description: All tested chemicals were purchased from Sigma-Aldrich (St. Louis, Mo.). Cells were dosed with drugs at a concentration equivalent to their published serum circulating therapeutic dosages. Dosing was performed on hESCs in 6-well plates in triplicate, i.e. three wells per plate. The plates were dosed in triplicate, so there were a total of nine dosed wells. In parallel, there were nine “control” wells, in which hESCs were cultured with mTeSR1 containing no drug, and three wells containing Matrigel with mTeSR1 medium without hESCs that served as medium controls. Lastly, three wells of dosed medium controls were prepared, containing Matrigel, mTeSR1 and drug, but no hESCs (FIG. 1). These medium controls provided baseline mass spectral data. On the first day of dosage, the determined concentration of drug was dissolved in mTeSR1, and then 2.5 mL of this solution was added to each dosed well of hESCs. Each day, for four days, the medium was removed and new dosed medium was added. On the fourth day, the medium was removed and added to acetonitrile to make a 40% acetonitrile solution, as outlined in the Sample Preparation section below.
Mass spectrometry was performed using an Agilent QTOF LC/MS system consisting of a G6520AA QTOF high resolution mass spectrometer capable of exact mass MS and MS/MS. In order to facilitate separation of small molecules with a wide range of polarity and to allow increased retention of hydrophilic species, Hydrophilic Interaction Liquid Chromatography (Alpert 1990) was employed. Each sample was run for 30 minutes with the gradient shown in Table 3 at a flow rate of 0.5 mL/min, using 0.1% formic acid in water (Solvent A) and 0.1% formic acid in acetonitrile (Solvent B). Electrospray ionization was employed using a dual ESI source, with an Agilent isocratic pump continuously delivering an internal mass reference solution into the source at approx. 0.01 mL/min. The mass range of the instrument was set to 100-1700 Da. A Phenomenex Luna HILIC column with dimensions 3×100 mm 3 μm particle size was used and maintained at 30° C. 5 μl of each sample was injected. Data acquisition was performed with Agilent MassHunter using high-resolution exact mass conditions.
Valproate is known to cause neural tube defects (DiLiberti et al. 1984) while nitric oxide synthase activity is essential for neural tube closure (Nachmany et al. 2006).

WA09 hESCs [1] = experiment: Random forest prediction of teratogenicity from metabolomics of spent media of dosed hESCs; assay type: cell-based, human; conditions: for Predicted teratogenicity (random forest statistical model): blind study, model trained on TS1, 142 mass features, circulating dose
Description: WA09 hESCs, obtained from WiCell Research Institute (NIH National Stem Cell Bank, Madison, Wis.) were cultured in 6-well plates on Matrigel (BD Biosciences, San Jose, Calif.), in mTeSR1 medium (Stem Cell Technologies, Vancouver, BC) incubated at 37° C. under 5% CO2 in a Thermo Electron Form a Series II Water Jacket CO2 Incubator. hESCs were passaged every three or four days at a 1:3 or 1:6 seeding density for routine culture conditions. For dosing experiments, hESCs were passaged at a low density of 1:10 or 1:12 so that they would not require passaging during the […] dosing protocol. To passage hES cells, the StemPro® EZPassage™ disposable stem cell passaging tool (Invitrogen, Carlsbad, Calif.) was used to detach the cells from the wells. Detached cells were removed with a pipette and distributed to new Matrigel plates.
(§1) These medium controls provided baseline mass spectral data.
(§2) The 2.5 mL of spent media per well from Example 1 was added to 1.67 mL acetonitrile to make a 40% acetonitrile solution. The acetonitrile acts to “quench” the spent media sample, slowing or halting many metabolic processes and aiding in precipitation of cellular proteins. Samples were either stored at −80° C. for later analysis, or for immediate analysis, 250 μL of the quenched solution was mixed with 250 μL of water, to a final concentration of 20% acetonitrile, then added to a 3 kDa molecular weight cut-off filter spin column (Microcon YM-3 Centrifugal Filter, Millipore, Billerica, Mass.). Each sample was then centrifuged in an IEC CL31R Multispeed Centrifuge (Thermo Scientific, Waltham, Mass.) at 13,000×g at 4° C. for 200 minutes. Following centrifugation, the flow-through was saved then dried for several hours in a Savant High Capacity Speedvac Plus Concentrator. The concentrated sample was then dissolved in 50 μL of 0.1% formic acid prior to LC-MS analysis.
(§3) 5 μl of each sample was injected.
(§4) Following LC-MS, chromatograms were inspected for reproducibility. LC-MS runs with total ion counts that vary by more than 25% were repeated to ensure that samples could be accurately compared. These runs were then used to create mass features that correspond to molecules detected across the different LC-MS runs. Mass features were extracted from the LC-MS data using MassHunter Qualitative Analysis software (Agilent Technologies). The following criteria were used as general guidelines, however some flexibility and optimization was needed. m/z values within the range of 75-1500, with a charge of +1 or −1, and a centroid height greater than 1000 were used to generate “mass features.” The mass peaks that pass these criteria were used to fit isotope and adduct (Na^+, K^+, and NH4^+) patterns corresponding to individual molecules, and to establish the abundance of each mass feature. The abundance is calculated by MassHunter software as the sum of the isotopic and adduct peaks that correspond to a single molecular feature. After data deconvolution, mass features showing at least two ions (e.g. (M^+H)^+ and (M^+H)^++1 or (M^+H)^+ and (M^+Na)^+) and an abundance value greater than 50000 for positive-ion mode data and 10000 in negative-ion mode data were included in the data set used for binning of the mass features.
Following feature selection by MassHunter, the data was further preprocessed by MassProfiler (Agilent) software which aligns mass features across multiple LC-MS data files. Mass features were generated for data from each drug treatment experiment (dosed and control) using the default alignment settings in MassProfiler with the requirement that a feature be present in at least 80% of the samples in one treatment. The mass feature datasets for each drug treatment experiment were further processed in a global manner using custom analysis scripts executed in the R statistical software environment. […]

mES cells = conditions: Nieden et al. 2001; cited from earlier work
[2] = test system: WA09 human embryonic stem (hES) cells; experiment: PLS-DA prediction of teratogenicity from secretome of treated hES cells (Example 9); conditions: DevTox pharmaceutical
Description: (§5) These included 11 known teratogens and 11 known non-teratogens. The current model is based on the mean fold change (treatment versus its associated intra-experimental control) of 15 metabolites common among the secretome of hES cells treated with pharmaceutical agents and unknown chemical compounds.

WA09 hESCs [3] = experiment: LC-MS metabolomics: abundance changes of metabolites in hESCs dosed at circulating dose; assay type: cell-based, human; conditions: drug-treated vs control
Description: as §1, §2, §3, §4
The media represents a major factor in the experimental system, in that it contributes many peaks to mass spectra. This can be accounted for in a data dependent manner to select for mass feature bins, which are present at significant levels above the media. Mass feature bins present solely in the presence of cells (not detected in media) or with average abundance levels different than uncultured media were considered to be secreted, excreted, consumed, or identified metabolites.
The exact mass of the metabolite must be within 10 ppm of the known mass of the compound. 2) The retention time of the metabolite detected in the cell media must be within + or −30 seconds of a reference standard on which MS data had been acquired under the same conditions. The reference standards were dissolved in mTeSR media and prepared in exactly the same manner (described above) as the samples from the cells, including the addition of acetonitrile, Centricon centrifugal filtration, drying then dissolution in formic acid prior to LC-MS analysis. 3) The MS-MS fragmentation spectra of the metabolite detected in the cell media must be a reasonable match with that of the reference standard, including abundances and m/z values of the fragment ions. If published MS-MS spectra are available, the MS-MS spectra must also be a reasonable match.

[4] = blinded drugs; cited from earlier work
[5] = test system: WA09 human embryonic stem (hES) cells
Description: as §5

[6] = high dose (H = 10x circulating dose)
[7] = low dose (L = 0.1x circulating dose)

Row | Compound | Arg/ADMA Prediction (hESCs) | Arg fold change/ADMA fold change (hESCs) | Classification by the hSLC based assay (WA09 hESCs [1]) | Correct classification as a teratogen by the EST (mES cells) | % Non (PLS-DA class probability non-teratogen) [2, 6] | % Ter (PLS-DA class probability teratogen) [2, 6] | Confidence (difference between class probabilities) [2, 6] | Prediction [2, 6] | % Non (PLS-DA class probability non-teratogen) [2, 7] | % Ter (PLS-DA class probability teratogen) [2, 7] | Confidence (difference between class probabilities) [2, 7] | Prediction [2, 7] | Predicted teratogenicity (random forest statistical model) (WA09 hESCs [1]) | Abundance of succinic acid (WA09 hESCs [3]) | Actual teratogenicity [4] | Arg/ADMA Prediction (hESCs; from fold change ratio) | Prediction [5]
1 | O=C1CCC(N2C(=O)c3ccccc3C2=O)C(=O)N1 (stereo not shown) [Thalidomide] | Ter | 0.85 | teratogen | does not | 0.3 | 0.7 | 0.4 | Ter | 0.65 | 0.35 | 0.3 | Non |  |  |  |  | 
2 | NC(=O)N1c2ccccc2C=Cc2ccccc21 [Carbamazepine] | Ter | 1.12 |  |  | 0.37 | 0.63 | 0.26 | Ter | 0.5 | 0.5 | 0 | Non | Ter | significant down regulation |  |  | 
3 | Cc1ncc(C[n+]2csc(CCO)c2C)c(N)n1 [Thiamine] |  | 1.00 |  |  | 0.78 | 0.22 | 0.56 | Non | 0.82 | 0.18 | 0.64 | Non | Non |  | Non |  | 
4 | O=P1(N(CCCl)CCCl)NCCCO1 (stereo not shown) [Cyclophosphamide] |  | 1.56 |  |  | 0.45 | 0.55 | 0.1 | Ter | 0.41 | 0.59 | 0.18 | Ter | Ter | significant down regulation |  | Ter | 
5 | Nc1ccn([C@@H]2O[C@H](CO)[C@@H](O)[C@@H]2O)c(=O)n1 [CytosineArabinoside] |  |  |  |  |  |  |  |  |  |  |  |  |  |  |  |  | Ter
6 | CC1=C(/C=C/C(C)=C/C=C/C(C)=C/CO)C(C)(C)CCC1 [Retinol] |  | 1.03 |  |  | 0.65 | 0.35 | 0.3 | Non | 0.75 | 0.25 | 0.5 | Non | Non |  | Non |  | 
7 | CN(Cc1cnc2nc(N)nc(N)c2n1)c1ccc(C(=O)N[C@@H](CCC(=O)O)C(=O)O)cc1 [Methotrexate] | Ter | 2.54 |  |  | 0.42 | 0.58 | 0.16 | Ter | 0.48 | 0.52 | 0.04 | Ter |  | significant down regulation |  |  | 
